Values quoted from earlier work as cited in PubChem BioAssay AID1259409 (Chemical Carcinogenesis Research Information System (CCRIS), 2018).

Test system: rodent chemically induced tumor inhibition, incidence and multiplicity
Assay: CCRIS tumor inhibitor studies
Conditions: Carcinogen: DIETHYLNITROSAMINE, 55-18-5, Dose [Inhibitor]: 0, Route [Inhibitor]: ORAL, Species: RAT, Strain/Sex: BD6/FEMALE, Promoter: NONE USED

## O=C1O[C@H]([C@@H](O)CO)C(O)=C1O
3 G/L IN DRINKING WATER BEGINNING 1 D PRIOR TO FIRST CARCINOGEN DOSE AND CONTINUING TO 2 D POST LAST CARCINOGEN DOSE, Target Tissue: Type of Lesion: LIVER: TUMOR, Dose [Carcinogen]: 80 MG/KG BW 1/WK FOR 8 WK
  tumour outcome (control, treated, inhibition, significance): 94%, 90%, 4%, not significant
3 G/L IN DRINKING WATER FOR DURATION OF STUDY BEGINNING 1 D PRIOR TO FIRST CARCINOGEN DOSE (STUDY DURATION: 6 MO), Target Tissue: Type of Lesion: ESOPHAGUS: TUMOR, Dose [Carcinogen]: 80 MG/KG BW 1/WK FOR 6 WK
  tumour outcome (control, treated, inhibition, significance): 14%, 0%, 100%, not significant
3 G/L IN DRINKING WATER FOR DURATION OF STUDY BEGINNING 1 D PRIOR TO FIRST CARCINOGEN DOSE (STUDY DURATION: 6 MO), Target Tissue: Type of Lesion: ESOPHAGUS: TUMOR, Dose [Carcinogen]: 80 MG/KG BW 1/WK FOR 10 WK
  tumour outcome (control, treated, inhibition, significance): 35%, 19%, 46%, not significant
3 G/L IN DRINKING WATER FOR DURATION OF STUDY BEGINNING 1 D PRIOR TO FIRST CARCINOGEN DOSE (STUDY DURATION: 6 MO), Target Tissue: Type of Lesion: LIVER: TUMOR, Dose [Carcinogen]: 80 MG/KG BW 1/WK FOR 6 WK
  tumour outcome (control, treated, inhibition, significance): 52%, 25%, 52%, not significant
3 G/L IN DRINKING WATER FOR DURATION OF STUDY BEGINNING 1 D PRIOR TO FIRST CARCINOGEN DOSE (STUDY DURATION: 6 MO), Target Tissue: Type of Lesion: LIVER: TUMOR, Dose [Carcinogen]: 80 MG/KG BW 1/WK FOR 10 WK
  tumour outcome (control, treated, inhibition, significance): 100%, 96%, 4%, not significant
3 G/L IN DRINKING WATER FOR DURATION OF STUDY BEGINNING 2 D POST CARCINOGEN TREATMENT (STUDY DURATION: 6 MO), Target Tissue: Type of Lesion: ESOPHAGUS: TUMOR, Dose [Carcinogen]: 80 MG/KG BW 1/WK FOR 10 WK
  tumour outcome (control, treated, inhibition, significance): 35%, 10%, 71%, not significant
10 G/L IN DRINKING WATER BEGINNING 1 D PRIOR TO FIRST CARCINOGEN DOSE AND CONTINUING TO 2 D POST LAST CARCINOGEN DOSE, Target Tissue: Type of Lesion: ESOPHAGUS: TUMOR, Dose [Carcinogen]: 80 MG/KG BW 1/WK FOR 8 WK
  tumour outcome (control, treated, inhibition, significance): 31%, 32%, -3%, not significant
10 G/L IN DRINKING WATER BEGINNING 1 D PRIOR TO FIRST CARCINOGEN DOSE AND CONTINUING TO 2 D POST LAST CARCINOGEN DOSE, Target Tissue: Type of Lesion: LIVER: TUMOR, Dose [Carcinogen]: 80 MG/KG BW 1/WK FOR 8 WK
  tumour outcome (control, treated, inhibition, significance): 94%, 95%, -1%, not significant
10 G/L IN DRINKING WATER FOR DURATION OF STUDY BEGINNING 1 D PRIOR TO FIRST CARCINOGEN DOSE (STUDY DURATION: 6 MO), Target Tissue: Type of Lesion: ESOPHAGUS: TUMOR, Dose [Carcinogen]: 80 MG/KG BW 1/WK FOR 10 WK
  tumour outcome (control, treated, inhibition, significance): 35%, 28%, 20%, not significant
10 G/L IN DRINKING WATER FOR DURATION OF STUDY BEGINNING 1 D PRIOR TO FIRST CARCINOGEN DOSE (STUDY DURATION: 6 MO), Target Tissue: Type of Lesion: LIVER: TUMOR, Dose [Carcinogen]: 80 MG/KG BW 1/WK FOR 10 WK
  tumour outcome (control, treated, inhibition, significance): 100%, 88%, 12%, not significant
10 G/L IN DRINKING WATER FOR DURATION OF STUDY BEGINNING 2 D POST CARCINOGEN TREATMENT (STUDY DURATION: 6 MO), Target Tissue: Type of Lesion: ESOPHAGUS: TUMOR, Dose [Carcinogen]: 80 MG/KG BW 1/WK FOR 10 WK
  tumour outcome (control, treated, inhibition, significance): 35%, 33%, 6%, not significant
10 G/L IN DRINKING WATER FOR DURATION OF STUDY BEGINNING 2 D POST CARCINOGEN TREATMENT (STUDY DURATION: 6 MO), Target Tissue: Type of Lesion: LIVER: TUMOR, Dose [Carcinogen]: 80 MG/KG BW 1/WK FOR 10 WK
  tumour outcome (control, treated, inhibition, significance): 100%, 100%, 0%, not significant
15 G/L IN DRINKING WATER BEGINNING 1 D PRIOR TO FIRST CARCINOGEN DOSE AND CONTINUING TO 2 D POST LAST CARCINOGEN DOSE, Target Tissue: Type of Lesion: ESOPHAGUS: TUMOR, Dose [Carcinogen]: 80 MG/KG BW 1/WK FOR 8 WK
  tumour outcome (control, treated, inhibition, significance): 31%, 26%, 16%, not significant
15 G/L IN DRINKING WATER BEGINNING 1 D PRIOR TO FIRST CARCINOGEN DOSE AND CONTINUING TO 2 D POST LAST CARCINOGEN DOSE, Target Tissue: Type of Lesion: LIVER: TUMOR, Dose [Carcinogen]: 80 MG/KG BW 1/WK FOR 8 WK
  tumour outcome (control, treated, inhibition, significance): 94%, 90%, 4%, not significant
